The nature of assay [1]: Selectivity index determined for CC50 (test I) to EC50 x 10e3. In kind it is functional.
Assay [2] is described as follows: Selectivity index determined for CC50 (test II) to EC50 x 10e3. In kind it is functional.
A further assay relates to MT4. Description: Cytotoxic concentration of compound required to reduce the viability of mock infected MT-4 cells on the MTT assay in test I. In kind it is functional. As to conditions: Homo sapiens. (In general: Formazan colour is commonly taken as a measure of viable cells.)
In the next assay the test system is PBMC (Homo sapiens). Description: Cytotoxic concentration of compound determined by the […] exclusion staining method in PBMC by test II.

Turning to `NCCCC[C@H]1NC(=O)[C@H](CCCN=C(N)N)NC(=O)[C@@H](Cc2ccc(O)cc2)NC(=O)[C@H](NC(=O)[C@@H](NC(=O)[C@H](CCCN=C(N)N)NC(=O)[C@@H](N)CCCNC(N)=O)c2ccc3ccccc3c2)CSSC[C@H](C(=O)N[C@@H](CCCN=C(N)N)C(=O)O)NC(=O)[C@H](CCCNC(N)=O)NC(=O)[C@H](CCCN=C(N)N)NC(=O)[C@H](Cc2ccc(O)cc2)NC(=O)[C@H]2CCCN2C(=O)[C@H](CCCNC(N)=O)NC1=O`, the results for the SI in assay [1] and in assay [2] were more than 2.8 and more than 22, respectively.
`NCCCC[C@H]1NC(=O)[C@H](CCCN=C(N)N)NC(=O)[C@@H](Cc2ccc(O)cc2)NC(=O)[C@H](NC(=O)[C@@H](NC(=O)[C@H](CCCN=C(N)N)NC(=O)[C@@H](N)CCCN=C(N)N)c2ccc3ccccc3c2)CSSC[C@H](C(=O)N[C@@H](CCCN=C(N)N)C(N)=O)NC(=O)[C@H](CCCNC(N)=O)NC(=O)[C@H](CCCN=C(N)N)NC(=O)[C@H](Cc2ccc(O)cc2)NC(=O)[C@H]2CCCN2C(=O)[C@H](CCCNC(N)=O)NC1=O`: the SI in assay [1] was more than 22; in assay [2], 21.
Regarding `NCCCC[C@H]1NC(=O)[C@H](CCCN=C(N)N)NC(=O)[C@@H](Cc2ccc(O)cc2)NC(=O)[C@H](NC(=O)[C@@H](NC(=O)[C@H](CCCN=C(N)N)NC(=O)[C@@H](N)CCCN=C(N)N)c2ccc3ccccc3c2)CSSC[C@H](C(=O)N[C@@H](CCCN=C(N)N)C(=O)O)NC(=O)[C@H](CCCNC(N)=O)NC(=O)[C@H](CCCNC(N)=O)NC(=O)[C@H](Cc2ccc(O)cc2)NC(=O)[C@H]2CCCN2C(=O)[C@H](CCCNC(N)=O)NC1=O`, the SI in assay [1] was more than 13; in assay [2], more than 100.
In the case of `NCCCC[C@H]1NC(=O)[C@H](CCCNC(N)=O)NC(=O)[C@@H](Cc2ccc(O)cc2)NC(=O)[C@H](NC(=O)[C@@H](NC(=O)[C@H](CCCN=C(N)N)NC(=O)[C@@H](N)CCCN=C(N)N)c2ccc3ccccc3c2)CSSC[C@H](C(=O)N[C@@H](CCCN=C(N)N)C(N)=O)NC(=O)[C@H](CCCNC(N)=O)NC(=O)[C@H](CCCN=C(N)N)NC(=O)[C@H](Cc2ccc(O)cc2)NC(=O)[C@H]2CCCN2C(=O)[C@H](CCCNC(N)=O)NC1=O`, the SI in assay [1] was more than 250; in assay [2] it was more than 2000.
For `NCCCC[C@H]1NC(=O)[C@H](CCCN=C(N)N)NC(=O)[C@@H](Cc2ccc(O)cc2)NC(=O)[C@H](NC(=O)[C@@H](NC(=O)[C@H](CCCN=C(N)N)NC(=O)[C@@H](N)CCCNC(N)=O)c2ccc3ccccc3c2)CSSC[C@H](C(=O)N[C@@H](CCCN=C(N)N)C(N)=O)NC(=O)[C@H](CCCNC(N)=O)NC(=O)[C@H](CCCN=C(N)N)NC(=O)[C@H](Cc2ccc(O)cc2)NC(=O)[C@H]2CCCN2C(=O)[C@H](CCCNC(N)=O)NC1=O` the same measures were more than 83 and 420.
Regarding `NCCCC[C@@H]1NC(=O)[C@H](CCCNC(N)=O)NC(=O)[C@H](Cc2ccc(O)cc2)NC(=O)[C@@H](NC(=O)[C@@H](NC(=O)[C@H](CCCN=C(N)N)NC(=O)[C@@H](N)CCCNC(N)=O)c2ccc3ccccc3c2)CSSC[C@@H](C(=O)N[C@@H](CCCN=C(N)N)C(N)=O)NC(=O)[C@H](CCCNC(N)=O)NC(=O)[C@H](CCCN=C(N)N)NC(=O)[C@H](Cc2ccc(O)cc2)NC(=O)[C@@H]2CCCN2C(=O)[C@@H](CCCCN)NC1=O`, the CC50 with MT4 is more than 100 µM; with PBMC (Homo sapiens) it was 350 µM.
For the molecule `NCCCC[C@@H]1NC(=O)[C@H](CCCN=C(N)N)NC(=O)[C@H](Cc2ccc(O)cc2)NC(=O)[C@@H](NC(=O)[C@@H](NC(=O)[C@H](CCCN=C(N)N)NC(=O)[C@@H](N)CCCN=C(N)N)c2ccc3ccccc3c2)CSSC[C@@H](C(=O)N[C@@H](CCCN=C(N)N)C(N)=O)NC(=O)[C@H](CCCNC(N)=O)NC(=O)[C@H](CCCN=C(N)N)NC(=O)[C@H](Cc2ccc(O)cc2)NC(=O)[C@@H]2CCCN2C(=O)[C@@H](CCCNC(N)=O)NC1=O`, the CC50 in the assay on MT4 was more than 100 µM; with PBMC (Homo sapiens), 98 µM.
For `NCCCC[C@@H]1NC(=O)[C@@H](CCCCN)NC(=O)[C@H](CCCN=C(N)N)NC(=O)[C@@H](Cc2ccc(O)cc2)NC(=O)[C@H](NC(=O)[C@@H](NC(=O)[C@H](CCCN=C(N)N)NC(=O)[C@@H](N)CCCNC(N)=O)c2ccc3ccccc3c2)CSSC[C@H](C(=O)N[C@@H](CCCN=C(N)N)C(N)=O)NC(=O)[C@H](CCCNC(N)=O)NC(=O)[C@H](CCCNC(N)=O)NC(=O)[C@H](Cc2ccc(O)cc2)NC(=O)[C@H]2CCCN2C1=O`, the SI was more than 2.5 in assay [1] and 12 in assay [2].
On the same counts, the results for `NCCCC[C@H]1NC(=O)[C@H](CCCN=C(N)N)NC(=O)[C@@H](Cc2ccc(O)cc2)NC(=O)[C@H](NC(=O)[C@@H](NC(=O)[C@H](CCCN=C(N)N)NC(=O)[C@@H](N)CCCN=C(N)N)c2ccc3ccccc3c2)CSSC[C@H](C(=O)N[C@@H](CCCN=C(N)N)C(=O)O)NC(=O)[C@H](CCCNC(N)=O)NC(=O)[C@H](CCCN=C(N)N)NC(=O)[C@H](Cc2ccc(O)cc2)NC(=O)[C@H]2CCCN2C(=O)[C@H](CCCNC(N)=O)NC1=O` are more than 20 and 28.
`NCCCC[C@@H]1NC(=O)[C@H](CCCNC(N)=O)NC(=O)[C@H](Cc2ccc(O)cc2)NC(=O)[C@@H](NC(=O)[C@@H](NC(=O)[C@H](CCCN=C(N)N)NC(=O)[C@@H](N)CCCN=C(N)N)c2ccc3ccccc3c2)CSSC[C@@H](C(=O)N[C@@H](CCCN=C(N)N)C(N)=O)NC(=O)[C@H](CCCNC(N)=O)NC(=O)[C@H](CCCN=C(N)N)NC(=O)[C@H](Cc2ccc(O)cc2)NC(=O)[C@@H]2CCCN2C(=O)[C@@H](CCCNC(N)=O)NC1=O`: the CC50 in the assay on MT4 is more than 100 µM; with PBMC (Homo sapiens), more than 800 µM.
As to `NCCCC[C@@H]1NC(=O)[C@H](CCCN=C(N)N)NC(=O)[C@H](Cc2ccc(O)cc2)NC(=O)[C@@H](NC(=O)[C@@H](NC(=O)[C@H](CCCN=C(N)N)NC(=O)[C@@H](N)CCCNC(N)=O)c2ccc3ccccc3c2)CSSC[C@@H](C(=O)N[C@@H](CCCN=C(N)N)C(N)=O)NC(=O)[C@H](CCCNC(N)=O)NC(=O)[C@H](CCCNC(N)=O)NC(=O)[C@H](Cc2ccc(O)cc2)NC(=O)[C@@H]2CCCN2C(=O)[C@@H](CCCCN)NC1=O`, the 50% cytotoxic concentration (CC50) in the assay on MT4 was more than 100 µM; in the assay with PBMC (Homo sapiens), 470 µM.
On the same counts, the results for `NCCCC[C@@H]1NC(=O)[C@H](CCCN=C(N)N)NC(=O)[C@H](Cc2ccc(O)cc2)NC(=O)[C@@H](NC(=O)[C@@H](NC(=O)[C@H](CCCN=C(N)N)NC(=O)[C@@H](N)CCCN=C(N)N)c2ccc3ccccc3c2)CSSC[C@@H](C(=O)N[C@@H](CCCN=C(N)N)C(=O)O)NC(=O)[C@H](CCCNC(N)=O)NC(=O)[C@H](CCCNC(N)=O)NC(=O)[C@H](Cc2ccc(O)cc2)NC(=O)[C@@H]2CCCN2C(=O)[C@@H](CCCNC(N)=O)NC1=O` are more than 100 µM and more than 800 µM.
In the case of `NCCCC[C@@H]1NC(=O)[C@H](CCCNC(N)=O)NC(=O)[C@H](Cc2ccc(O)cc2)NC(=O)[C@@H](NC(=O)[C@@H](NC(=O)[C@H](CCCN=C(N)N)NC(=O)[C@@H](N)CCCNC(N)=O)c2ccc3ccccc3c2)CSSC[C@@H](C(=O)N[C@@H](CCCN=C(N)N)C(=O)O)NC(=O)[C@H](CCCNC(N)=O)NC(=O)[C@H](CCCN=C(N)N)NC(=O)[C@H](Cc2ccc(O)cc2)NC(=O)[C@@H]2CCCN2C(=O)[C@@H](CCCCN)NC1=O`, the CC50 in the assay on MT4 was more than 100 µM; with PBMC (Homo sapiens), more than 800 µM.
Turning to `NCCCC[C@@H]1NC(=O)[C@H](CCCN=C(N)N)NC(=O)[C@H](Cc2ccc(O)cc2)NC(=O)[C@@H](NC(=O)[C@@H](NC(=O)[C@H](CCCN=C(N)N)NC(=O)[C@@H](N)CCCNC(N)=O)c2ccc3ccccc3c2)CSSC[C@@H](C(=O)N[C@@H](CCCN=C(N)N)C(=O)O)NC(=O)[C@H](CCCNC(N)=O)NC(=O)[C@H](CCCNC(N)=O)NC(=O)[C@H](Cc2ccc(O)cc2)NC(=O)[C@@H]2CCCN2C(=O)[C@@H](CCCCN)NC1=O`, the half-maximal cytotoxic concentration (CC50) is more than 100 µM with MT4 and more than 800 µM in the assay on PBMC (Homo sapiens).
On the same counts, the results for `NCCCC[C@@H]1NC(=O)[C@H](CCCNC(N)=O)NC(=O)[C@H](Cc2ccc(O)cc2)NC(=O)[C@@H](NC(=O)[C@@H](NC(=O)[C@H](CCCN=C(N)N)NC(=O)[C@@H](N)CCCN=C(N)N)c2ccc3ccccc3c2)CSSC[C@@H](C(=O)N[C@@H](CCCN=C(N)N)C(=O)O)NC(=O)[C@H](CCCNC(N)=O)NC(=O)[C@H](CCCNC(N)=O)NC(=O)[C@H](Cc2ccc(O)cc2)NC(=O)[C@@H]2CCCN2C(=O)[C@@H](CCCCN)NC1=O` are more than 100 µM and more than 800 µM.
As for `NCCCC[C@@H]1NC(=O)[C@H](CCCNC(N)=O)NC(=O)[C@H](Cc2ccc(O)cc2)NC(=O)[C@@H](NC(=O)[C@@H](NC(=O)[C@H](CCCN=C(N)N)NC(=O)[C@@H](N)CCCN=C(N)N)c2ccc3ccccc3c2)CSSC[C@@H](C(=O)N[C@@H](CCCN=C(N)N)C(=O)O)NC(=O)[C@H](CCCNC(N)=O)NC(=O)[C@H](CCCN=C(N)N)NC(=O)[C@H](Cc2ccc(O)cc2)NC(=O)[C@@H]2CCCN2C(=O)[C@@H](CCCNC(N)=O)NC1=O`, the results for the 50% cytotoxic concentration (CC50) in the assay with MT4 and in the assay on PBMC (Homo sapiens) were more than 100 µM and more than 800 µM, respectively.
`NCCCC[C@@H]1NC(=O)[C@H](CCCNC(N)=O)NC(=O)[C@H](Cc2ccc(O)cc2)NC(=O)[C@@H](NC(=O)[C@@H](NC(=O)[C@H](CCCN=C(N)N)NC(=O)[C@@H](N)CCCN=C(N)N)c2ccc3ccccc3c2)CSSC[C@@H](C(=O)N[C@@H](CCCN=C(N)N)C(N)=O)NC(=O)[C@H](CCCNC(N)=O)NC(=O)[C@H](CCCN=C(N)N)NC(=O)[C@H](Cc2ccc(O)cc2)NC(=O)[C@@H]2CCCN2C(=O)[C@@H](CCCCN)NC1=O`: the CC50 in the assay with MT4 was more than 100 µM; with PBMC (Homo sapiens) it was 410 µM.
With `NCCCC[C@@H]1NC(=O)[C@H](CCCN=C(N)N)NC(=O)[C@H](Cc2ccc(O)cc2)NC(=O)[C@@H](NC(=O)[C@@H](NC(=O)[C@H](CCCN=C(N)N)NC(=O)[C@@H](N)CCCNC(N)=O)c2ccc3ccccc3c2)CSSC[C@@H](C(=O)N[C@@H](CCCN=C(N)N)C(N)=O)NC(=O)[C@H](CCCNC(N)=O)NC(=O)[C@H](CCCN=C(N)N)NC(=O)[C@H](Cc2ccc(O)cc2)NC(=O)[C@@H]2CCCN2C(=O)[C@@H](CCCNC(N)=O)NC1=O`, the half-maximal cytotoxic concentration (CC50) with MT4 is more than 100 µM; with PBMC (Homo sapiens) it was 500 µM.

A word on the CC50: it is the concentration at which the toxic effect on the cells reaches its halfway point. Lower therefore signals greater toxicity to the cells.

These data come from ChEMBL document CHEMBL1134146, “Development of specific CXCR4 inhibitors possessing high selectivity indexes as well as complete stability in serum based on an anti-HIV peptide T140” (Bioorg Med Chem Lett, 2001).
